Each structure is given as a SMILES string. pIC50: −log10 of the molar value.

The values below come from patent US20250213575A1, “8-HETEROCYCLIC-3-(PHENYLSULFONYL)-[1,2,3]TRIAZOLO[1,5A]QUINAZOLIN-5(4H)-ONE DERIVATIVES AS ANTI-BACTERIALS” (priority 2022, published 2025).

This assay concerns the target AgrA (Staphylococcus aureus, UniProt P0A0I7). In words: cell-based. On the set-up: species or system S. aureus USA300 strain UAMS-1625. The conditions noted are these: for Ratio IC50 (in presence of HSA)/IC50 (in absence of HSA): 40 mg/mL HSA vs without HSA.
Setting [1] is: IC50 at 40 mg/mL HSA, LB medium supplemented with 40 mg/mL human serum albumin.
The mark [2] stands for this setting: IC50 without HSA, LB medium, without HSA.

AgrA, sequence (P0A0I7 whole entry): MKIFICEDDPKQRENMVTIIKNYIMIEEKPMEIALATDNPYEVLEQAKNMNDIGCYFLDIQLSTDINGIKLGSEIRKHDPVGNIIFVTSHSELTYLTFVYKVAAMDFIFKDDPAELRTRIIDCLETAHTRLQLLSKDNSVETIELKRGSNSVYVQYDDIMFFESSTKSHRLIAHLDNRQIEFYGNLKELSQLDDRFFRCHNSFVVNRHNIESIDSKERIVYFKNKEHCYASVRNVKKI

Regarding `Cc1ccc(S(=O)(=O)c2n[nH]n3c2nc(=O)c2ccc(N4CCC5(CC4)CN(C)CCO5)cc23)c(C)c1` [Compound 16, 3-(2,4-dimethylbenzenesulfonyl)-8-{4-methyl-1-oxa-4,9-diazaspiro[5.5]undecan-9-yl}-1H,5H-[1,2,3]triazolo[1,5-a]quinazolin-5-one], the “Ratio IC50 (in presence of HSA)/IC50 (in absence of HSA)” value (from here on “Ratio IC50 (in presence of HSA)/IC50”) is on record as “++ (ratio ≤ 125)”. This molecule gave a pIC50 under setting [1] of 4.02 to 4.72. This molecule also had a pIC50 under setting [2] of more than 5.72.
Regarding `Cc1ccc(S(=O)(=O)c2n[nH]n3c2nc(=O)c2ccc(N4CCOC5(CCNCC5)C4)cc23)c(C)c1` [Compound 17, 3-(2,4-dimethylbenzenesulfonyl)-8-{1-oxa-4,9-diazaspiro[5.5]undecan-4-yl}-1H,5H-[1,2,3]triazolo[1,5-a]quinazolin-5-one], the “Ratio IC50 (in presence of HSA)/IC50” value is recorded as “+++ (ratio ≤ 25)”. Moreover, under setting [1], the pIC50 is 4.01 to 4.71. Besides, under setting [2], the pIC50 is 5.01 to 5.71.
For the molecule `Cc1ccc(S(=O)(=O)c2n[nH]n3c2nc(=O)c2ccc(N4CCOC5(CCN(C)CC5)C4)cc23)c(C)c1` [Compound 18, 3-(2,4-dimethylbenzenesulfonyl)-8-{9-methyl-1-oxa-4,9-diazaspiro[5.5]undecan-4-yl}-1H,5H-[1,2,3]triazolo[1,5-a]quinazolin-5-one], the “Ratio IC50 (in presence of HSA)/IC50” value is listed as “+++ (ratio ≤ 25)”. The molecule further showed a negative logarithm of the IC50 (pIC50) under setting [1] of 4.02 to 4.72. Further, the negative logarithm of the IC50 (pIC50) under setting [2] was 5.02 to 5.72.
The corresponding values for `Cc1ccc(S(=O)(=O)c2n[nH]n3c2nc(=O)c2ccc(N4CCC5(CCNC[C@@H]5O)CC4)cc23)c(C)c1` [Compound 19, 3-(2,4-dimethylbenzenesulfonyl)-8-[(7R)-7-hydroxy-3,9-diazaspiro[5.5]undecan-3-yl]-1H,5H-[1,2,3]triazolo[1,5-a]quinazolin-5-one] are “+++ (ratio ≤ 25)”, 4.02 to 4.72 and 5.02 to 5.72.
Turning to `Cc1ccc(S(=O)(=O)c2n[nH]n3c2nc(=O)c2ccc(N4CC5(CC(O)C5)C4)cc23)c(C)c1` [Compound 20, 3-(2,4-dimethylbenzenesulfonyl)-8-{6-hydroxy-2-azaspiro[3.3]heptan-2-yl}-1H,5H-[1,2,3]triazolo[1,5-a]quinazolin-5-one], the “Ratio IC50 (in presence of HSA)/IC50” value is “++ (ratio ≤ 125)”. Under setting [1], the negative logarithm of the IC50 (pIC50) was 3.97 to 4.67. The molecule further showed a pIC50 under setting [2] of more than 5.67.
As to `Cc1ccc(S(=O)(=O)c2n[nH]n3c2nc(=O)c2ccc(N4CC5(C4)CC(C)(O)C5)cc23)c(C)c1` [Compound 21, 3-(2,4-dimethylbenzenesulfonyl)-8-{6-hydroxy-6-methyl-2-azaspiro[3.3]heptan-2-yl}-1H,5H-[1,2,3]triazolo[1,5-a]quinazolin-5-one], the “Ratio IC50 (in presence of HSA)/IC50” value is reported as “++ (ratio ≤ 125)”. Under setting [1], this molecule had a pIC50 of 3.98 to 4.68. Under setting [2], this molecule gave a pIC50 of more than 5.68.
The corresponding values for `Cc1ccc(S(=O)(=O)c2nnn3c2[nH]c(=O)c2ccc(N4CCN(C)CC4)cc23)c(C)c1` [Compound 22, 3-(2,4-dimethylbenzenesulfonyl)-8-(4-methylpiperazin-1-yl)-4H,5H-[1,2,3]triazolo[1,5-a]quinazolin-5-one] are “+++ (ratio ≤ 25)”, 3.96 to 4.66 and more than 5.66.
For the molecule `Cc1ccc(S(=O)(=O)c2nnn3c2[nH]c(=O)c2ccc(N4C[C@@H](C)N[C@@H](C)C4)cc23)c(C)c1` [Compound 24, 3-(2,4-dimethylbenzenesulfonyl)-8-[(3R,5S)-3,5-dimethylpiperazin-1-yl]-4H,5H-[1,2,3]triazolo[1,5-a]quinazolin-5-one], the “Ratio IC50 (in presence of HSA)/IC50” value is “+++ (ratio ≤ 25)”. This molecule showed a pIC50 under setting [1] of 3.97 to 4.67. Further, the pIC50 under setting [2] was 4.97 to 5.67.
The corresponding values for `Cc1ccc(S(=O)(=O)c2nnn3c2[nH]c(=O)c2ccc(N4C[C@@H](C)N(C)[C@@H](C)C4)cc23)c(C)c1` [Compound 25, rac-3-(2,4-dimethylbenzenesulfonyl)-8-[(3R,5S)-3,4,5-trimethylpiperazin-1-yl]-4H,5H-[1,2,3]triazolo[1,5-a]quinazolin-5-one] are “+++ (ratio ≤ 25)”, more than 4.68 and more than 5.68.
For `Cc1ccc(S(=O)(=O)c2nnn3c2[nH]c(=O)c2ccc(N4CC(C)NC(C)C4)cc23)c(C)c1` (stereo not drawn) [Compound 26, 3-(2,4-dimethylbenzenesulfonyl)-8-(3,5-dimethylpiperazin-1-yl)-4H,5H-[1,2,3]triazolo[1,5-a]quinazolin-5-one] the same measures were “+++ (ratio ≤ 25)”, 3.97 to 4.67 and 4.97 to 5.67.
As to `Cc1ccc(S(=O)(=O)c2nnn3c2[nH]c(=O)c2ccc(N4CC(C)N(C)C(C)C4)cc23)c(C)c1` (stereo not drawn) [Compound 27, 3-(2,4-dimethylbenzenesulfonyl)-8-(3,4,5-trimethylpiperazin-1-yl)-4H,5H-[1,2,3]triazolo[1,5-a]quinazolin-5-one], the “Ratio IC50 (in presence of HSA)/IC50” value is “+++ (ratio ≤ 25)”. Also, the pIC50 under setting [1] was 3.98 to 4.68. The molecule further had a negative logarithm of the IC50 (pIC50) under setting [2] of more than 5.68.
The corresponding values for `Cc1ccc(S(=O)(=O)c2nnn3c2[nH]c(=O)c2ccc(N4CCN(C)C(C)(C)C4)cc23)c(C)c1` [Compound 29, 3-(2,4-dimethylbenzenesulfonyl)-8-(3,3,4-trimethylpiperazin-1-yl)-4H,5H-[1,2,3]triazolo[1,5-a]quinazolin-5-one] are “++ (ratio ≤ 125)”, 3.98 to 4.68 and 4.98 to 5.68.
Regarding `Cc1ccc(S(=O)(=O)c2nnn3c2[nH]c(=O)c2ccc(N4CCN5CCOCC5C4)cc23)c(C)c1` (stereo not drawn) [Compound 30, 3-(2,4-dimethylbenzenesulfonyl)-8-{octahydropyrazino[2,1-c][1,4]oxazin-8-yl}-4H,5H-[1,2,3]triazolo[1,5-a]quinazolin-5-one], the “Ratio IC50 (in presence of HSA)/IC50” value is reported as “+++ (ratio ≤ 25)”. This molecule also had a negative logarithm of the IC50 (pIC50) under setting [1] of 4.00 to 4.69. For the same molecule, under setting [2], the negative-log IC50 (pIC50) is 5.00 to 5.69.
For `CNC1CCN(c2ccc3c(=O)[nH]c4c(S(=O)(=O)c5ccc(C)cc5C)nnn4c3c2)CC1` [Compound 31, 3-(2,4-dimethylbenzenesulfonyl)-8-[4-(methylamino)piperidin-1-yl]-4H,5H-[1,2,3]triazolo[1,5-a]quinazolin-5-one] the same measures were “+++ (ratio ≤ 25)”, 3.97 to 4.67 and more than 5.67.
The corresponding values for `Cc1ccc(S(=O)(=O)c2nnn3c2[nH]c(=O)c2ccc(N4CCC(N(C)C)CC4)cc23)c(C)c1` [Compound 32, 8-[4-(dimethylamino)piperidin-1-yl]-3-(2,4-dimethylbenzenesulfonyl)-4H,5H-[1,2,3]triazolo[1,5-a]quinazolin-5-one] are “+++ (ratio ≤ 25)”, 3.98 to 4.68 and 4.98 to 5.68.
As to `Cc1ccc(S(=O)(=O)c2nnn3c2[nH]c(=O)c2ccc(N4CCC(N)CC4)cc23)c(C)c1` [Compound 33, 8-(4-aminopiperidin-1-yl)-3-(2,4-dimethylbenzenesulfonyl)-4H,5H-[1,2,3]triazolo[1,5-a]quinazolin-5-one], the “Ratio IC50 (in presence of HSA)/IC50” value is “+++ (ratio ≤ 25)”. Further, the negative-log IC50 (pIC50) under setting [1] was more than 4.66. For the same molecule, the pIC50 under setting [2] is more than 5.66.
The corresponding values for `CNC1CCN(c2ccc3c(=O)[nH]c4c(S(=O)(=O)c5ccc(C)cc5C)nnn4c3c2)C1` (stereo not drawn) [Compound 34, 3-(2,4-dimethylbenzenesulfonyl)-8-[3-(methylamino)pyrrolidin-1-yl]-4H,5H-[1,2,3]triazolo[1,5-a]quinazolin-5-one] are “++ (ratio ≤ 125)”, 3.96 to 4.66 and more than 5.66.
Turning to `Cc1ccc(S(=O)(=O)c2nnn3c2[nH]c(=O)c2ccc(N4CC[C@@H](N)C4)cc23)c(C)c1` [Compound 35, 8-[(3R)-3-aminopyrrolidin-1-yl]-3-(2,4-dimethylbenzenesulfonyl)-4H,5H-[1,2,3]triazolo[1,5-a]quinazolin-5-one], the “Ratio IC50 (in presence of HSA)/IC50” value is “+++ (ratio ≤ 25)”. The same molecule had a negative logarithm of the IC50 (pIC50) under setting [1] of 3.94 to 4.64. In addition, the negative-log IC50 (pIC50) under setting [2] is more than 5.64.
The corresponding values for `Cc1ccc(S(=O)(=O)c2nnn3c2[nH]c(=O)c2ccc(N4CCN5CCCC5C4)cc23)c(C)c1` (stereo not drawn) [Compound 36, 3-(2,4-dimethylbenzenesulfonyl)-8-{octahydropyrrolo[1,2-a]pyrazin-2-yl}-4H,5H-[1,2,3]triazolo[1,5-a]quinazolin-5-one] are “+++ (ratio ≤ 25)”, 3.98 to 4.68 and more than 5.68.
As for `Cc1ccc(S(=O)(=O)c2nnn3c2[nH]c(=O)c2ccc(N4CCN5CCC[C@H]5C4)cc23)c(C)c1` [Compound 37, 8-[(8aS)-octahydropyrrolo[1,2-a]pyrazin-2-yl]-3-(2,4-dimethylbenzenesulfonyl)-4H,5H-[1,2,3]triazolo[1,5-a]quinazolin-5-one], the “Ratio IC50 (in presence of HSA)/IC50” value is “+++ (ratio ≤ 25)”. The molecule further showed a negative-log IC50 (pIC50) under setting [1] of 3.98 to 4.68. Further, the negative logarithm of the IC50 (pIC50) under setting [2] was 4.98 to 5.68.
The corresponding values for `Cc1ccc(S(=O)(=O)c2nnn3c2[nH]c(=O)c2ccc(N4CCN5CCC[C@@H]5C4)cc23)c(C)c1` [Compound 38, 8-[(8aR)-octahydropyrrolo[1,2-a]pyrazin-2-yl]-3-(2,4-dimethylbenzenesulfonyl)-4H,5H-[1,2,3]triazolo[1,5-a]quinazolin-5-one] are “+++ (ratio ≤ 25)”, 3.98 to 4.68 and 4.98 to 5.68.
As for `Cc1ccc(S(=O)(=O)c2nnn3c2[nH]c(=O)c2ccc(N4CCC5C(CCN5C)C4)cc23)c(C)c1` (stereo not drawn) [Compound 39, 3-(2,4-dimethylbenzenesulfonyl)-8-{1-methyl-octahydro-1H-pyrrolo[3,2-c]pyridin-5-yl}-4H,5H-[1,2,3]triazolo[1,5-a]quinazolin-5-one], the “Ratio IC50 (in presence of HSA)/IC50” value is reported as “+++ (ratio ≤ 25)”. This molecule showed a pIC50 under setting [1] of 3.99 to 4.69. This molecule had a pIC50 under setting [2] of more than 5.69.
